tested on: phosphorylated Akt at serine 473 (pAKTs473) in primary lung fibroblasts derived from explanted tissue; assay: Phosphorylated Akt (Ser473) in vitro immunoassay (MSD), fibroblasts from explanted tissue; type: cell-based; conditions: Homo sapiens, Primary lung fibroblast, 96-well, compound 2 h, PDGF-BB 10 ng/ml 15 min, read-out: mean pIC50, pAKTs473 immunoassay (converted)
Text: Immunoassay using the Meso Scale Discovery (MSD) platform to measure the effect of test compounds on phosphorylated Akt at serine 473 (pAKTs473) in primary lung fibroblasts derived from explanted tissue. The human biological samples were sourced ethically and their research use was in accord with the terms of the informed consents under an IRB/EC approved protocol.
Human lung fibroblasts were routinely maintained in Dulbecco's Modified Eagle Medium (DMEM; Gibco, catalogue no. 21969-035) supplemented with 10% foetal bovine serum (FBS (heat-inactivated); Gibco, catalogue no. 10270-106) and 4 mM L-glutamine (Gibco, catalogue no. 25030024) at 37° C. in 10% CO2.
For the assay, cells were harvested using Trypsin/EDTA (Gibco, catalogue no. 25300-062), resuspended to give 1.2×10^5 cells/ml and 100 ul/well seeded into 96-well plates (Corning, Catalogue No. 3596) in DMEM supplemented with 0.4% FCS and 4 mM L-glutamine and incubated overnight at 37° C. in 10% CO2.
Test compounds were dissolved in 100% DMSO to give 10 mM stock solutions and serially diluted to generate a 10-point concentration response curve. Compounds were further diluted 100-fold into 96-well V-bottom polypropylene plates (Greiner, Catalogue no. 651201) with DMEM supplemented with 0.4% FCS and 4 mM L-glutamine to give 100 µM top compound concentration in 1% DMSO.
Compounds were further diluted 10-fold by transfer to 96-well plates containing cells ([…] top concentration, 0.1% DMSO final) and incubated for 2 h at 37° C. in 10% CO2, prior to stimulation with platelet-derived growth factor (PDGF)-BB (Gibco, Catalogue no. PHG0041) at 10 ng/ml (final) for 15 min at 37° C. in 10% CO2. Cell assay plates were then incubated on ice and treated with lysis buffer (Cell Signalling Technology, Catalogue No. 9803) containing protease and phosphatase inhibitors (Halt, Thermo Scientific, Catalogue No. 78444) for 30 min.
MSD plates (MSD, Phospho(Ser473)/Total Akt Whole Cell Lysate Kit, Catalogue No. K15100D-3) were blocked with 1×blocking buffer as per the manufacturer's instructions at RT with shaking, followed by washing (×3) with Tris-buffered saline containing 0.05% Tween-20 (TBST). Cell lysates (30 ul) were added and MSD plates incubated for 1 h at RT with shaking.
Plates were washed with TBST (×3), prior to addition of SULFO-TAG Anti-Total Akt Antibody as per the manufacturer's instructions and shaken at RT for 1 h. After washing with 1×TBST (×3), read buffer (1×) (MSD, Catalogue No. R92TC-1) was added as per the manufacturer's instructions before detecting electrochemiluminescence (MSD Sector Imager 600).
Data analysis was performed using non-linear regression analysis to determine IC50 values for test compounds. Minimum (no PDGF-BB stimulation) and maximum responses (+PDGF-BB stimulation) were monitored for assay quality control.

`CCc1cc2nc(-c3nc(CS(C)(=O)=O)cc(N4C(=O)COC[C@@H]4CC)n3)ccc2[nH]1` [Example 15, (5S)-5-ethyl-4-(2-{2-ethyl-1H-pyrrolo[3,2-b]pyridin-5-yl}-6-(methanesulfonylmethyl)pyrimidin-4-yl)morpholin-3-one] was tested. Which IC50 did it give?
Its IC50 is under 0.1 µM.

Which IC50 does the source give for `CC[C@H]1COCCN1c1cc(CS(C)(=O)=O)nc(-c2ccc3[nH]c(CNC)cc3n2)n1` [Example 1, [(5-{4-[(3S)-3-ethylmorpholin-4-yl]-6-(methanesulfonylmethyl)pyrimidin-2-yl}-1H-pyrrolo[3,2-b]pyridin-2-yl)methyl](methyl)amine] here?
The IC50 was under 0.1 µM.

With `CC[C@H]1COCCN1c1cc(CS(N)(=O)=O)nc(-c2ccc3[nH]c(CNC)cc3n2)n1` [Example 6, {6-[(3S)-3-ethylmorpholin-4-yl]-2-{2-[(methylamino)methyl]-1H-pyrrolo[3,2-b]pyridin-5-yl}pyrimidin-4-yl}methanesulfonamide] as the compound, how does the IC50 read?
Its IC50 is under 0.1 µM.

`CC[C@H]1COCC(=O)N1c1cc(CS(C)(=O)=O)cc(-c2ccc3[nH]c(C)cc3n2)n1` [Example 24, (S)-5-ethyl-4-(6-(2-methyl-1H-pyrrolo[3,2-b]pyridin-5-yl)-4-((methylsulfonyl)methyl)pyridin-2-yl)morpholin-3-one] was tested. Which IC50 did it give?
The IC50 was under 0.1 µM.

tested on: type I collagen deposition in primary lung fibroblasts derived from human tissue; assay: Type I collagen deposition (scar-in-a-jar) high content screening assay; type: cell-based; conditions: Primary lung fibroblast, 72 h, human pulmonary fibroblasts, 96-well, TGFβ-1 1 ng/ml 72 h, collagen intensity, read-out: mean pIC50, type I collagen deposition (scar-in-a-jar) (converted)
Description: Cellular type I collagen deposition was measured by adapting a published method; scar-in-a-jar (Chen et al., 2009) to primary lung fibroblasts derived from human tissue and combining with high content analysis to permit fluorescent quantification of collagen deposited in the extracellular matrix (ECM). The human biological samples were sourced ethically and their research use was in accord with the terms of the informed consents under an IRB/EC approved protocol. Human pulmonary fibroblasts were maintained in DMEM media (Gibco, Catalogue No 21969) supplemented with 4 mM L-glutamine (Gibco Catalogue No 25030-024) and 100/heat inactivated FBS (Gibco #10270-106, Lot #42F6663K) at 37° C. in 10%/CO2. Cells were harvested and seeded at 10,000 cells per well (85 μL/well) into black walled 96 well imaging plates (BD Falcon, 353219) in assay media (0.4%/heat inactivated FBS, 4 mM L-glutamine) and incubated overnight at 37° C., 10%/CO2.
Test compounds were dissolved in 1000/DMSO to give 10 mM stocks which were further diluted (serial 1:3) to generate 10 point concentration response curves. Assay media was supplemented with 112.5 mg/ml Ficoll 70 (Sigma, Catalogue No F2878), 75 mg/ml Ficoll 400 (Sigma, Catalogue No F4375) and 50 µg/ml ascorbic acid (Sigma, Catalogue No A8960). 3 μL compound were added to 297 μL assay media (10× compound final concentration in 1% DMSO).
Diluted compounds (15 μL) were transferred to plates containing cells and incubated for 3 h at 37° C. in 10% CO2. Transforming growth factor (TGF)β-1 (R&D Systems, Catalogue No 100-B/CF) was reconstituted according to manufacturer's instructions to give 10 µg/mL (stock) and further diluted (1 in 3333) in assay media containing Ficoll and ascorbic acid. 50 μL TGFβ-1 was added to cell plates (1 ng/ml final) and cells incubated for 72 h at 37° C. in 10% CO2.
Media was removed and cells were fixed with 50 µL/well 100% ice-cold methanol (2 min). Methanol was decanted and cells washed with PBS (3×). To permeabilise, cells were incubated with PBS containing 0.1% Triton X 100 for 90 sec, followed by PBS wash (3×). Cells were incubated with mouse anti human type I collagen monoclonal antibody (Sigma, Catalogue No C2456) diluted 1:1000 in PBS overnight at 4° C. Cells were washed with PBS containing 0.05% Tween-20 (3×) and incubated with secondary alexa fluor 488 goat-anti-mouse antibody (Invitrogen, Catalogue No A11001, 1 in 500 in PBS) and Hoechst 33342 (Sigma, Catalogue No H21492), 1 in 10000 in PBS) for 1 h at RT, prior to washing with PBS containing 0.05% Tween (×3) before finally adding 200 µL/well PBS.
Type I collagen immunoreactivity was detected using the Thermofisher CellInsight NXT set to excitation and emission wavelengths for DAPI and FITC with exposure adjusted to appropriate levels. Images were analysed using Cellomics Studio software (Version 6.6.0, build 8153) and computational algorithms to quantify “collagen intensity” and “cell count”.
Data analysis was performed by determining % response values for test compounds relative to the maximum (TGFβ-1 stimulation) fitting a ‘log(inhibitor) vs. response-Variable slope (four parameters)’ curve and recording pIC50 (inverse of Log IC50) values for test compounds.

How did the IC50 turn out when `CC[C@H]1COCCN1c1cc(C2(S(C)(=O)=O)CCOCC2)nc(-c2ccc3[nH]c(CO)cc3n2)n1` [Example 4, (5-{4-[(3S)-3-ethylmorpholin-4-yl]-6-(4-methanesulfonyloxan-4-yl)pyrimidin-2-yl}-1H-pyrrolo[3,2-b]pyridin-2-yl)methanol] was run?
Its IC50 is over 3.98 µM.

With `CNCc1cc2nc(-c3cc(CS(C)(=O)=O)cc(N4CCO[C@H](C)[C@H]4C)n3)ccc2[nH]1` [Example 8, 1-(5-(6-((2R,3R)-2,3-dimethylmorpholino)-4-((methylsulfonyl)methyl)pyridin-2-yl)-1Hpyrrolo[3,2-b]pyridin-2-yl)-Nmethylmethanamine] as the compound, how does the IC50 read?
Its IC50 is under 3.98 µM.

Which IC50 does the source give for `CC[C@H]1COCC(=O)N1c1cc(CS(C)(=O)=O)cc(-c2ccc3[nH]c(CO)cc3n2)n1` [Example 27] here?
The IC50 was under 3.98 µM.

Which IC50 does the source give for `CC[C@H]1COCCN1c1cc(CS(N)(=O)=O)nc(-c2ccc3[nH]c(CNC)cc3n2)n1` [Example 6, {6-[(3S)-3-ethylmorpholin-4-yl]-2-{2-[(methylamino)methyl]-1H-pyrrolo[3,2-b]pyridin-5-yl}pyrimidin-4-yl}methanesulfonamide] here?
Its IC50 is over 3.98 µM.

How did the IC50 turn out when `CC[C@H]1COCCN1c1cc(C2(S(C)(=O)=O)CCNCC2)cc(-c2ccc3[nH]c(C)cc3n2)n1` [Example 18, (S)-3-ethyl-4-(6-(2-methyl-1H-pyrrolo[3,2-b]pyridin-5-yl)-4-(4-(methylsulfonyl)piperidin-4-yl)pyridin-2-yl)morpholine] was run?
Its IC50 is under 3.98 µM.

Which IC50 does the source give for `CC[C@H]1COCCN1c1cc(CS(C)(=O)=O)nc(-c2ccc3[nH]c(CO)cc3n2)n1` [Example 2, (S)-(5-(4-(3-ethylmorpholino)-6-((methylsulfonyl)methyl)pyrimidin-2-yl)-1H-pyrrolo[3,2-b]pyridin-2-yl)methanol] here?
The IC50 was under 3.98 µM.
